Measured values: patent US11666562B2, “Ilaprazole for inhibiting the release of enveloped viruses from cells” (Northwestern University, priority 2020, dated 2023)

Experiments:
HSV-2 [1] = assay: Release of HSV-2 from infected Vero cells, plaque assay; assay type: cell-based, Herpes simplex virus-2(A/B-G); conditions: for EC50: Human alphaherpesvirus 2, MOI 0.1, 24 h, read-out: EC50, inhibition of HSV-2 release; for Total infectious virus (released plus inside cells), HSV-2: 24 h, freeze/thaw lysate
Procedure: We infected Vero cells with HSV-1 and HSV-2 for two hours at a multiplicity of infection (MOI in pfu\cell) of 0.1 to assay the antiviral activity of tenatoprazole. Following infection, cells were treated with different concentrations of tenatoprazole. After 24 or 48 h the media fractions were collected and released virus titers were determined by standard plaque assays (30). Tenatoprazole caused a 3-log drop of HSV-1 and 4-5 log drop of HSV-2 in released infectious virus from Vero cells at 24 hours after infection in a dose dependent manner (Table 1, shown in FIG. 5, columns 2 and 3) with calculated EC50's ranging from 48-80 μM. Total virus titer was also determined to differentiate between virus released into the media and infectious particles present in cell lysate. […] The concentrations of tenatoprazole that blocked virus release were nontoxic to Vero cells as determined by a 96® AQueous One Solution cell proliferation assay reagent (Table 1, shown in FIG. 5, column 7). Taken together, tenatoprazole inhibited levels of both released and infectious virus particles without affecting cell viability at effective concentrations.
To examine the effects of the compounds on the release of HSV-2 from Vero cells, we infected the cells with virus two hours prior to treatment with media containing different concentrations of compound. We incubated the cells for 24 or 48 hours and then collected the cell media fractions.
Herpesvirus infection of Vero cells. Vero cells (0.8×10^6 cells/well of a 6-well plate) were infected with HSV-1 or HSV-2 at a MOI of 0.1 pfu/cell in DMEM with 1% serum for two hours in the C02 incubator at 37° C. In one experiment looking at the effect of tenatoprazole on HSV-2 release from cells 24 and 48 h a MOI of 3 pfu/cell was used. The cell supernatants were aspirated and replaced with 1 ml (24 h) or 2 ml (48 h and 72 h) of DMEM with 1% serum with DMSO or different concentrations of drug (tenatoprazole, ilaprazole, or analogs) dissolved in DMSO. After 24 or 48 h incubation, the cell supernatant was collected and frozen at −80° C. Virus titer in the cell media fraction was determined by standard plaque assays using 10-fold serial dilutions of cell supernatants of Vero cells and incubated for 48 h after which cells were fixed and stained to count the plaques (22). For determination of total virus (extracellular+cytoplasmic), virus infected cells were incubated for 24 h with and without drug presence, then the plate of cells were subjected to 3 cycles of freeze/thawing (−80° C./37° C.) 30 min each prior to collecting the supernatant after centrifugation for measurement of total virus titer. Virus titer was measured by standard plaque assay as above.
Drug potency and cell toxicity. EC50 calculations were determined by using AAT Bioquest's EC50 calculator. Cell toxicity at different concentrations of drugs as indicated was determine using the Cell Proliferation Reagent WST-1 (Roche Diagnostics) or cellular 96® Aqueous One Reagent viability reagent according to manufacturer's instructions. For 293T cells, the concentration of DMSO was 0.2% or less and assays were carried out with DMEM with 10% serum. Cell toxicity experiments were repeated twice.

HSV-2 [2] = assay: Transmission electron microscopy of HSV-2 infected Vero cells, location of virus particles; assay type: cell-based, Herpes simplex virus-2(A/B-G); conditions: 24 h, 80 cells
Procedure: Cellular location of tenatoprazole inhibition. We next imaged herpesvirus infected-Vero cells using transmission electron microscopy to determine the site of inhibition of release of virus and whether it was similar to observations of HIV-1 release from 293T cells. Vero cells grown on glass cover slips were infected with HSV-2 at MOI of 0.1 pfu/cell for 2 h and then treated for 24 h with 105 μM tenatoprazole or vehicle control. In the no drug control, virus particles were in both the nucleus and cytoplasm near the cell surface (FIG. 2A). In the tenatoprazole-treated cells the cytosol of all of the intact cells was largely devoid of virus particles (FIG. 2B). Instead, we observed large pockets of granular material accumulated in the nucleus and immature virus particles inside the nucleus and lining the inside of the nuclear membrane (inset, B).
We next carried out a transmission electron microscopic examination of cells infected with HSV-2 at a MOI 0.1 in the presence and absence of 18 μM ilaprazole to determine if this drug causes the accumulation of virus particles in the nucleus of cells similar to tenatoprazole. Without drug, we observe particles in the cytoplasm and in the nucleus (FIGS. 4A & B), in the presence of drug little or no viral particles are found in the cytoplasm (FIGS. 4C & D). In both heavily infected cells (FIGS. 4A & C) and mildly infected cells (FIGS. 4B & D), treatment lead to particles being detected in the nucleus and arrayed along the nuclear membrane but lacking in the cytosol. […] Similar results were obtained with HSV-1 infected cells (FIG. 4E-H). Particles are seen in both the cytoplasm and nucleus in the absence of drug and just in the nucleus in the presence of drug. […] The lower total infectious virus detected in Table 3 (FIG. 7) is consistent with blockage of the virus passaging out of the nucleus into the cytoplasm where membranes are exchanged and virus becomes infectious.
Transmission electron Microscopy. Vero cells on glass cover slips were infected with HSV-2 at a MOI of 0.1 for two hours. Then 105 μM of tenatoprazole or 18 μM Ilaprazole was added and cells incubated for 24 hours. Tissue samples were fixed in 0.1 M sodium cacodylate buffer pH 7.3 containing 2% paraformaldehyde and 2.5% glutaraldehyde and post-fixed with 2% osmium tetroxide in unbuffered aqueous solution. The samples were rinsed with distilled water, en bloc stained with 3% uranyl acetate, rinsed with distilled water, dehydrated in ascending grades of ethanol, transitioned with propylene oxide, embedded in the resin mixture of Embed 812 kit and cured in a 60° C. oven. Samples were sectioned on a Leica Ultracut UC6 ultramicrotome. 1 μm thick sections were collected and stained with Toluidine Blue O and 70 nm sections were collected on 200 mesh copper grids; thin sections were stained with uranyl acetate and Reynolds lead citrate. Transmission electron microscopy (TEM) was performed on a FEI Tecnai Spirit G2.

## COc1ccnc(C[S+]([O-])c2nc3ccc(-n4cccc4)cc3[nH]2)c1C (stereo not drawn) [Ilaprazole, 2-[(4-methoxy-3-methylpyridin-2-yl)methylsulfinyl]-6-pyrrol-1-yl-1H-benzimidazole]
HSV-2 [1]; Vero cells
  EC50: 3 to 9 µM
  Total infectious virus (released plus inside cells), HSV-2: significant drop in total virus
HSV-2 [1]; Table 2, 24 h
  Anti-HSV-2 activity (release from Vero cells), in words: potent antiviral activity
HSV-2 [2]; HSV-2, 18 μM ilaprazole
  Average number of virus particles in the nucleus: 31 particles
  Range of number of virus particles in the nucleus: 9-56 particles
  Virus particles in the cytoplasm: 0 particles

## COc1ccc2[nH]c([S+]([O-])Cc3ncc(C)c(OC)c3C)nc2n1 (stereo not drawn) [Tenatoprazole]
HSV-2 [1]; Vero cells
  EC50: 48 to 80 µM
  Total infectious virus (released plus inside cells), HSV-2: reduced by tenatoprazole, but not as strongly as virus released into the media
HSV-2 [1]; Vero cells, 24 hours after infection, dose dependent
  Drop in released infectious HSV-2: 4-5 log
HSV-2 [1]; data not shown
  Duration of inhibition of HSV-2 release after a single application: began to fall off after 48 h
HSV-2 [2]; HSV-2, 105 μM tenatoprazole
  Average number of virus particles in the nucleus: 31 particles
  Virus particles in the cytoplasm: did not detect virus particles
